Earlier results, collected in patent US5364629A, “Device and method for enhanced administration of physostigmine” (priority 1991, dated 1994).

Assays:
[1] = American Journal of Psychiatry, July 1979
[2] = Davis, et al, Science, Volume 201, p. 272 (1978)
[3] = early observation, myasthenia gravis background
[4] = systemic use
[5] = tablets

In the case of `CNC(=O)Oc1ccc2c(c1)[C@]1(C)CCN(C)[C@@H]1N2C` [Physostigmine, physostigmine], the “effect on tardive dyskinesia” value [1] is given as “positive: therapeutic effect on tardive dyskinesia”, the “retrieval of information from long-term memory” value [2] is given as “retrieval of information from long-term memory was also improved” and the “storage of information into long-term memory” value [2] is given as “significantly enhanced storage of information into long-term memory”. For the same molecule, the “strength of muscular contraction” value [3] was “increased strength of muscular contraction”, the therapeutic window [4] was “narrow therapeutic window” and the “drug blood levels for multiple oral doses” value [5] was “ranging from a maximum above the required level (and possibly in the toxic range) to a minimum which may be below the effective dose”.
